Publication PMC9120017, “Inhibition mechanism of the chloride channel TMEM16A by the pore blocker 1PBC” (Nature Communications, 2022)
Where two headings read alike, the source gives them in different places.

Target: T1, mouse TMEM16A mutant Y514A (Mus musculus, UniProt Q8BHY3, Y514A)
T1 construct: expressed in transfected cells; host or cells: HEK293T
T1 sequence (Q8BHY3 1-960 Y514A): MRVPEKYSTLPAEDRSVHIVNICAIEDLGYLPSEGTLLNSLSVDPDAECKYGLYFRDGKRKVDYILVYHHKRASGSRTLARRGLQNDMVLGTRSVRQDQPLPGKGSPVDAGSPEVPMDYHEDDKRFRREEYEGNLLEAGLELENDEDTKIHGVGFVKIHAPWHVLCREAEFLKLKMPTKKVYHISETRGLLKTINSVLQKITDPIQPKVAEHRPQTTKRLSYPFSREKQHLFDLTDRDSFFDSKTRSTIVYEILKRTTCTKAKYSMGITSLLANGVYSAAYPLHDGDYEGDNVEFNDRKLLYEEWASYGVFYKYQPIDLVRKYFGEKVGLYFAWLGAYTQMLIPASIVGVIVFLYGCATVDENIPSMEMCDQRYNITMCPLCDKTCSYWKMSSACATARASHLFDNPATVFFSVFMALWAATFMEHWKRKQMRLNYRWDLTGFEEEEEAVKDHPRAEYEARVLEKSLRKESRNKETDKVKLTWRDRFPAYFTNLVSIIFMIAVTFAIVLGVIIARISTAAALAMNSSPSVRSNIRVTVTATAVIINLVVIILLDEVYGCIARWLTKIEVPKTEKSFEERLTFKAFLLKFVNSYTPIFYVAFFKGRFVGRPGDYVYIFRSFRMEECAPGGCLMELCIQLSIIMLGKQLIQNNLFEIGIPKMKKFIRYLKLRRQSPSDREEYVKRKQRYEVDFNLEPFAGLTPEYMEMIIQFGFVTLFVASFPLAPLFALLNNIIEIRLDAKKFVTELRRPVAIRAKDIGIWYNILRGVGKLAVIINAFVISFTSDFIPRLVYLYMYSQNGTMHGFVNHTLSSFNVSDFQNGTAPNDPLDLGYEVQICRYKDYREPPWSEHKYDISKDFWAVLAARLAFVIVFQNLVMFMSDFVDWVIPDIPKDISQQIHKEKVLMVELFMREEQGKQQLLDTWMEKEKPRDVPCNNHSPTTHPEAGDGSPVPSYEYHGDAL
Assay: Inside-out patch recording of 1PBC block, mutant Y514A
Format: cell-based
Details: for remaining activity at 10 µM: 1PBC 10; for remaining activity at 10 µM / remaining activity at 30 µM / remaining activity at 100 µM: read-out: fraction of unblocked current; for remaining activity at 30 µM: 1PBC 30; for remaining activity at 100 µM: 1PBC 100
Description: HEK293T cells (ATCC CRL-1573) were maintained in Dulbecco’s modified Eagle’s medium (DMEM; Sigma-Aldrich) supplemented with 10 U ml^−1 penicillin, 0.1 mg ml^−1 streptomycin (Sigma-Aldrich), 2 mM L-glutamine (Sigma-Aldrich), and 10% FBS (Sigma-Aldrich) in a humidified atmosphere containing 5% CO2 at 37 °C. HEK293S GnTI^− cells (ATCC CRL-3022) were maintained in HyClone HyCell TransFx-H medium (GE Healthcare) supplemented with 10 U ml^−1 penicillin, 0.1 mg ml^−1 streptomycin, 4 mM L-glutamine, 0.15% poloxamer 188 (Sigma-Aldrich), and 1% FBS in an atmosphere containing 5% CO2 at 185 rpm at 37 °C. The ac splice variant of mouse TMEM16A (UniProt ID: Q8BHY3), mouse TMEM16B (UniProt ID: Q8CFW1), or mouse TMEM16F (UniProt ID: Q6P9J9) bearing a 3C cleavage site, a Venus YFP, a Myc tag, and a Streptavidin-binding peptide (SBP) downstream of the open reading frame in a modified pcDNA3.1 vector (Invitrogen) were used as described previously[21],[31]. Mutations were introduced using a modified QuikChange method[58] and were verified by sequencing.
HEK293T cells were transfected with 3–4 μg DNA per 6 cm Petri dish using the calcium phosphate co-precipitation method and were used within 24–96 h after transfection. Recordings were performed on inside-out patches excised from HEK293T cells expressing the construct of interest. Patch pipettes were pulled from borosilicate glass capillaries (O.D. 1.5 mm, I.D. 0.86 mm, Sutter Instrument) and were fire-polished with a microforge (Narishige) before use. Pipette resistance was typically 3–8 MΩ when filled with the recording solutions detailed below. Seal resistance was typically 4 GΩ or higher. Voltage-clamp recordings were made using Axopatch 200B, Digidata 1550, and Clampex 10.7 (Molecular Devices). Analog signals were filtered with the in-built 4-pole Bessel filter at 10 kHz and were digitized at 20 kHz. Solution exchange was achieved using a gravity-fed system through a theta glass pipette mounted on an ultra-fast piezo-driven stepper (Siskiyou). […] All recordings were performed at 20 °C.
A symmetrical ionic condition was used throughout. Stock solution with Ca^2+-EGTA contained 150 mM NaCl, 5.99 mM Ca(OH)2, 5 mM EGTA, and 10 mM HEPES at pH 7.40. Stock solution with EGTA contained 150 mM NaCl, 5 mM EGTA, and 10 mM HEPES at pH 7.40. Free Ca^2+ concentrations were adjusted by mixing the stock solutions at the required ratios calculated using the WEBMAXC program (http://web.stanford.edu/~cpatton/webmaxcS.htm). Patch pipettes were filled with the stock solution with Ca^2+-EGTA, which has a free Ca^2+ concentration of 1 mM. 1PBC (ChemBridge) stock was reconstituted in anhydrous DMSO (Sigma-Aldrich) at 100 mM and stored at −20 °C. Working solutions with 1PBC were prepared by serial dilution. Unless otherwise stated, experiments were performed at a saturating Ca^2+ concentration as shown in Supplementary Table 1 and the primary data were corrected for current rundown as described previously[21],[25].
Concentration-response relations, obtained from the ratio of the I-V plots before and after the application of the blocker, were fitted to the Hill equation,1 I/Imax=1/1+IC50/[blocker]^h where I/Imax is the normalized current responses, IC50 defines the concentration at which inhibition is at its half-maximum, and h is the Hill coefficient.

N#Cc1c(C(F)(F)F)cc(O)n2c1nc1ccccc12 [1PBC]
IC50 (0 mV, 2 µM Ca2+): 22.8 µM | remaining activity at 10 µM (0 mV): 71.6% | remaining activity at 10 µM (20 mV): 67.7% | remaining activity at 10 µM (40 mV): 65.8% | remaining activity at 10 µM (60 mV): 59.8% | remaining activity at 10 µM (80 mV): 58.2% | remaining activity at 10 µM (100 mV): 57.1% | remaining activity at 10 µM (120 mV): 53.3% | remaining activity at 10 µM (140 mV): 53.7% | remaining activity at 10 µM (-20 mV): 75.5% | remaining activity at 10 µM (-40 mV): 78.8% | remaining activity at 10 µM (-60 mV): 81.3% | remaining activity at 10 µM (-80 mV): 82.9% | remaining activity at 10 µM (-100 mV): 85.5% | remaining activity at 10 µM (-120 mV): 87.1% | remaining activity at 10 µM (-140 mV): 86.2% | remaining activity at 30 µM (0 mV): 41% | remaining activity at 30 µM (20 mV): 37.8% | remaining activity at 30 µM (40 mV): 34.4% | remaining activity at 30 µM (60 mV): 31.9% | remaining activity at 30 µM (80 mV): 28.9% | remaining activity at 30 µM (100 mV): 27.6% | remaining activity at 30 µM (120 mV): 26.5% | remaining activity at 30 µM (140 mV): 26.4% | remaining activity at 30 µM (-20 mV): 44.3% | remaining activity at 30 µM (-40 mV): 50% | remaining activity at 30 µM (-60 mV): 56.5% | remaining activity at 30 µM (-80 mV): 60.4% | remaining activity at 30 µM (-100 mV): 64.5% | remaining activity at 30 µM (-120 mV): 67.9% | remaining activity at 30 µM (-140 mV): 70.2% | remaining activity at 100 µM (0 mV): 19.2% | remaining activity at 100 µM (20 mV): 15.9% | remaining activity at 100 µM (40 mV): 14.2% | remaining activity at 100 µM (60 mV): 13.7% | remaining activity at 100 µM (80 mV): 12.7% | remaining activity at 100 µM (100 mV): 11.3% | remaining activity at 100 µM (120 mV): 11.7% | remaining activity at 100 µM (140 mV): 12.2% | remaining activity at 100 µM (-20 mV): 22.6% | remaining activity at 100 µM (-40 mV): 25.4% | remaining activity at 100 µM (-60 mV): 29.3% | remaining activity at 100 µM (-80 mV): 32.8% | remaining activity at 100 µM (-100 mV): 38% | remaining activity at 100 µM (-120 mV): 42.9% | remaining activity at 100 µM (-140 mV): 48.1% | IC50 (20 mV, 2 µM Ca2+): 19.4 µM | IC50 (40 mV, 2 µM Ca2+): 17.3 µM | IC50 (60 mV, 2 µM Ca2+): 14.6 µM | log-fold IC50 (change of mutant vs WT) (80 mV): 0.6902 | IC50 (80 mV, 2 µM Ca2+): 13.3 µM | IC50 (100 mV, 2 µM Ca2+): 12.5 µM | IC50 (120 mV, 2 µM Ca2+): 11.3 µM | IC50 (140 mV, 2 µM Ca2+): 11.5 µM | IC50 (-20 mV, 2 µM Ca2+): 26.9 µM | IC50 (-40 mV, 2 µM Ca2+): 32.7 µM | IC50 (-60 mV, 2 µM Ca2+): 40.6 µM | IC50 (-80 mV, 2 µM Ca2+): 47.4 µM | IC50 (-100 mV, 2 µM Ca2+): 58 µM | IC50 (-120 mV, 2 µM Ca2+): 69.6 µM | IC50 (-140 mV, 2 µM Ca2+): 81 µM | IC50 (Y514A, V 0 mV): 22.8 µM | IC50 (Y514A, V 20 mV): 19.4 µM | IC50 (Y514A, V 40 mV): 17.3 µM | IC50 (Y514A, V 60 mV): 14.6 µM | IC50 (Y514A, V 80 mV): 13.3 µM | IC50 (Y514A, V 100 mV): 12.5 µM | IC50 (Y514A, V 120 mV): 11.3 µM | IC50 (Y514A, V 140 mV): 11.5 µM | IC50 (Y514A, V -20 mV): 26.9 µM | IC50 (Y514A, V -40 mV): 32.7 µM | IC50 (Y514A, V -60 mV): 40.6 µM | IC50 (Y514A, V -80 mV): 47.4 µM | IC50 (Y514A, V -100 mV): 58 µM | IC50 (Y514A, V -120 mV): 69.6 µM | IC50 (Y514A, V -140 mV): 81 µM
